# Test results reported in patent US10858369B2, “Pseudopolymorphic forms of a HIV protease inhibitor” (Janssen Sciences Ireland Unlimited Company, priority 2002, dated 2020).
# Legend:
# [1] = Fractions of Form B characterized with TG, DSC and IR; format: physicochemical; design: key to IR: ~Hydrate, Ref: ~hydrate, Ref: identical with reference
# Description: Different fractions of Form B were characterized with thermogravimetry (TG), differential scanning calorimetry (DSC) and infrared spectroscopy (IR).
# [2] = Randomized, placebo-controlled, double-blind, multiple dose escalation trial: safety, tolerability and pharmacokinetics after oral administration
# [3] = Aqueous solubility in solvents with different pH (excess solute equilibrated at 20° C., UV spectrometry); format: physicochemical
# Method: Further solubility investigations were performed in function of pH. […] An excess of the solute was equilibrated with the solvent at 20° C. for at least 24 hours. After removing the undissolved compound, the concentration in solution was determined using UV spectrometry.
# Aqueous solubilities of Form B were measured in solvents with different pH. An excess of the solute was equilibrated with the solvent at 20° C. for at least 24 hours. After removing the undissolved compound, the concentration in solution was determined using UV spectrometry.
# Aqueous solubilities of Form K were measured in solvents with different pH. An excess of the solute was equilibrated with the solvent at 20° C. for at least 48 hours. After removing the undissolved compound, the concentration in solution was determined using UV spectrometry.
# [4] = Adsorption-Desorption tests (vapor sorption, weight change with respect to atmospheric humidity, 25° C.); format: physicochemical
# Method: drying temperature: 40° C.
# equilibrium: ≤0.05% in 5 min. or 60 min.
# data interval: 0.05% or 2 min.
# At the drying step about 0.6% weight loss was registered.
# About 21 mg of Form K were transferred into a VTI vapor sorption analyzer model SGA100 and the weight change with respect to the atmospheric humidity was recorded at the following conditions:
# drying temperature: 30° C.
# data interval: 0.05% or 2.0 min.
# Form K is hygroscopic. […] Form K adsorbed up to 1.5% water at high relative humidity.
# A different study of the adsorption and desorption of water by Form K at 25° C. at different conditions of relative humidity was investigated on an amount of about 18 mg of the mesylate solvate. The weight change as a function of relative humidity was registered.
# [5] = Approximate solubility in different solvents at approximate 23° C.; format: physicochemical; conditions: thermodynamic from solid
# [6] = Adsorption-Desorption Hydratation Tests; format: physicochemical; conditions: 25° C., RH cycle repeated 11 times
# Method: equilibrium: ≤0.0005% in 5 min. or 90 min.
# data interval: 0.05% or 2 min
# cycle RH (%) adsorption/desorption: 5.95 repeat the cycle 11 times
# At the end of this test a loss of weight of 5.2% was registered. […] The ADS/DES hydratation test curves are collected in FIG. 19.
# [7] = Solubility in function of HPβCD (hydroxpropyl-β-cyclodextrin); format: physicochemical; conditions: 2 days at 20° C.
# Method: An excess of product was equilibrated with the solvent during 2 days at 20° C. After removing the undissolved compound, the concentration in solution was determined using UV spectrometry.
# [8] = Thermogravimetry of Form A, before and after Adsorption/Desorption tests, and at 25° C. under dry nitrogen; format: physicochemical
# Method: The TG curve was recorded on a TA Instrument Hi-Res TGA 2950 thermogravimeter at the following conditions:
# initial temperature: room temperature
# final condition: 300° C. or <80[(w/w) %]
# The loss of weight at temperatures up to 80° C. is mainly due to the evaporation of solvent (water) present in the sample. The loss of weight at temperatures above 80° C. is mainly due to the evaporation of solvent (ethanolate) present in the sample.
# The loss of weight at 25° C. after 10 hours was around 0.6%. This was due to the evaporation of solvent.
# [9] = initial drying step (drying temperature 40° C. Form A, 30° C. Form K)
# [10] = different study, about 18 mg, 25° C., FIG. 26
compound,measurement,setting,value
"CC(C)CN(C[C@@H](O)[C@H](Cc1ccccc1)NC(=O)OC1CO[C@H]2OCC[C@@H]12)S(=O)(=O)c1ccc(N)cc1 (single isomer, unassigned) [Form B fraction 1]",IR,[1]; after ADS/DES,"±Hydrate,"
same,TG % weight change <100° C.,[1]; after ADS/DES,4.30%
same,DSC Max (° C.),[1]; fraction as such,69.1 °C
same,IR,[1]; fraction as such,"Hydrate, Ref"
same,TG % weight change <100° C.,[1]; fraction as such,5.65%
"CC(C)CN(C[C@@H](O)[C@H](Cc1ccccc1)NC(=O)OC1CO[C@H]2OCC[C@@H]12)S(=O)(=O)c1ccc(N)cc1 (single isomer, unassigned) [Form B fraction 2]",DSC Max (° C.),[1]; after 5 d 40° C./75% RH,74.1 °C
same,IR,[1]; after 5 d 40° C./75% RH,"~Hydrate, Ref"
same,TG % weight change <100° C.,[1]; after 5 d 40° C./75% RH,3.56%
same,DSC Max (° C.),[1]; fraction as such,75.6 °C
same,IR,[1]; fraction as such,"~Hydrate, Ref"
same,TG % weight change <100° C.,[1]; fraction as such,5.91%
"CC(C)CN(C[C@@H](O)[C@H](Cc1ccccc1)NC(=O)OC1CO[C@H]2OCC[C@@H]12)S(=O)(=O)c1ccc(N)cc1 (single isomer, unassigned) [Form B fraction 3]",DSC Extra (° C.),[1]; after 5 d 40° C./75% RH,62.8 °C
same,DSC Max (° C.),[1]; after 5 d 40° C./75% RH,77.4 °C
same,IR,[1]; after 5 d 40° C./75% RH,"±Hydrate,"
same,TG % weight change <100° C.,[1]; after 5 d 40° C./75% RH,2.33%
same,DSC Extra (° C.),[1]; fraction as such,67.8 °C
same,DSC Max (° C.),[1]; fraction as such,77.0 °C
same,IR,[1]; fraction as such,"±Hydrate,"
same,TG % weight change <100° C.,[1]; fraction as such,3.13%
"CC(C)CN(C[C@@H](O)[C@H](Cc1ccccc1)NC(=O)O[C@H]1CO[C@H]2OCC[C@H]21)S(=O)(=O)c1ccc(N)cc1 [Form A, (3R,3aS,6aR)-hexahydrofuro [2,3-b] furan-3-yl (1S,2R)-3-[[(4-aminophenyl)sulfonyl] (isobutyl)amino]-1-benzyl-2-hydroxypropylcarbamate]",unchanged Form A excreted in the urine,[2]; all dose levels,Less than 2%
same,time to reach steady-state plasma concentrations,"[2]; oral, repeated dosing b.i.d. or t.i.d., healthy subjects",≤ 3 days
same,dose-proportionality of Cmax (maximum conc.),[2]; with respect to dose per intake,dose-proportional
same,solubility,"[3]; Water (pH 5.9), at least 24 hours",16 (pH 5.9) mg/100 ml solution
same,solubility thermodynamic,"[3]; pH 0.2, aqueous buffer, 1.0N HCl (pH 0.2), at least 24 hours",6200 µg/mL
same,solubility thermodynamic,"[3]; pH 1.1, aqueous buffer, 0.1N HCl (pH 1.1), at least 24 hours",830 µg/mL
same,solubility thermodynamic,"[3]; pH 2, aqueous buffer, Buffer pH 2 (citrate/HCl) (pH 2.0), at least 24 hours",180 µg/mL
same,solubility thermodynamic,"[3]; pH 2.1, aqueous buffer, 0.01N HCl (pH 2.1), at least 24 hours",180 µg/mL
same,solubility thermodynamic,"[3]; pH 3, aqueous buffer, Buffer pH 3 (citrate/HCl) (pH 3.0), at least 24 hours",100 µg/mL
same,solubility thermodynamic,"[3]; pH 4, aqueous buffer, Buffer pH 4 (citrate/HCl) (pH 4.0), at least 24 hours",90 µg/mL
same,hygroscopicity,[4]; 25° C.,not hygroscopic
same,loss of weight during the desorption cycle,[4]; 25° C.,1.4%
same,obtained product after ADS/DES,[4]; 25° C.,mixture of ethanolate form and hydrated form
same,weight loss at the drying step,[4]; [9],about 0.6%
same,solubility,"[5]; organic solvent or mixture, 1-Methoxy-2-propanol",160000 to 213000 µg/mL
same,solubility,"[5]; organic solvent or mixture, 2-Propanol",< 3400 µg/mL
same,solubility,"[5]; organic solvent or mixture, Acetone",106000 to 211000 µg/mL
same,solubility,"[5]; organic solvent or mixture, Dichloromethane",105000 to 209000 µg/mL
same,solubility,"[5]; organic solvent or mixture, Ethanol absolute",< 3400 µg/mL
same,solubility,"[5]; organic solvent or mixture, Ethylacetate",71000 to 107000 µg/mL
same,solubility,"[5]; organic solvent or mixture, Ethylmethylketone",102000 to 204000 µg/mL
same,solubility,"[5]; organic solvent or mixture, Heptane",< 3400 µg/mL
same,solubility,"[5]; organic solvent or mixture, Isopropylether",< 3400 µg/mL
same,solubility,"[5]; organic solvent or mixture, Methacyanate",> 200000 µg/mL
same,solubility,"[5]; organic solvent or mixture, Methanol",< 3400 µg/mL
same,solubility,"[5]; organic solvent or mixture, Tetrahydrofurane",102000 to 203000 µg/mL
same,solubility,"[5]; organic solvent or mixture, Toluene",< 3500 µg/mL
same,solubility,[5]; water,< 3500 µg/mL
same,form after the hydratation test,[6],transferred into a hydrated form
same,loss of weight at the end of the test,[6],5.2%
same,solubility,[7]; 5% HPβCD in water (pH = 5.8),2.4 (pH = 5.8) mg/ml solution
same,solubility,[7]; 10% HPβCD in water (pH = 6.0),6.5 (pH = 6.0) mg/ml solution
same,solubility,[7]; 20% HPβCD in water (pH = 6.0),17 (pH = 6.0) mg/ml solution
same,solubility,[7]; 40% HPβCD in water (pH = 5.9),40 (pH = 5.9) mg/ml solution
same,solubility,[7]; Water (pH = 5.9),0.16 (pH = 5.9) mg/ml solution
same,loss of weight (TG),"[8]; 25° C. under dry nitrogen atmosphere, after 10 hours",around 0.6%
same,TG (% weight change) >80° C.,[8]; Form A as such,7.1%
same,TG (% weight change) Up to 80° C.,[8]; Form A as such,0.3%
same,TG (% weight change) >80° C.,[8]; after A/D hydratation test,0.5%
same,TG (% weight change) Up to 80° C.,[8]; after A/D hydratation test,5.4%
same,TG (% weight change) >80° C.,[8]; after ADS/DES,4.0%
same,TG (% weight change) Up to 80° C.,[8]; after ADS/DES,2.9%
"CC(C)CN(C[C@@H](O)[C@H](Cc1ccccc1)NC(=O)O[C@H]1CO[C@H]2OCC[C@H]21)S(=O)(=O)c1ccc(N)cc1 [Form B, (3R,3aS,6aR)-hexahydrofuro [2,3-b] furan-3-yl (1S,2R)-3-[[(4-aminophenyl)sulfonyl] (isobutyl)amino]-1-benzyl-2-hydroxypropylcarbamate]",solubility,"[3]; 0.1N HCl (pH 1.1), at least 24 hours",150 (pH 1.1) mg/100 ml solution
same,solubility,"[3]; Buffer pH 2 (citrate/HCl) (pH 2.0), at least 24 hours",23 (pH 2.0) mg/100 ml solution
same,solubility,"[3]; Buffer pH 3 (citrate/HCl) (pH 3.0), at least 24 hours",13 (pH 3.0) mg/100 ml solution
same,solubility,"[3]; Buffer pH 4 (citrate/HCl) (pH 4.0), at least 24 hours",12 (pH 4.0) mg/100 ml solution
same,solubility thermodynamic,"[3]; pH 0.14, aqueous buffer, 1.0N HCl (pH 0.14), at least 24 hours",5100 µg/mL
same,solubility thermodynamic,"[3]; pH 5.1, water, Water (pH 5.1), at least 24 hours",100 µg/mL
same,hygroscopicity,[4]; 25° C.,hygroscopic
same,obtained product after ADS/DES,[4]; 25° C.,mixture of hydrate and amorphous product
same,water remained on the sample after the desorption cycle,[4]; 25° C.,about 1.2%
same,weight loss at the drying step,[4]; [9],about 5.6%
"CC(C)CN(C[C@@H](O)[C@H](Cc1ccccc1)NC(=O)O[C@H]1CO[C@H]2OCC[C@H]21)S(=O)(=O)c1ccc(N)cc1 [Form K, (3R,3aS,6aR)-hexahydrofuro [2,3-b] furan-3-yl (1S,2R)-3-[[(4-aminophenyl)sulfonyl] (isobutyl)amino]-1-benzyl-2-hydroxypropylcarbamate]",solubility,"[3]; 20% HPβCD in water (pH 1.6), at least 48 hours",2100 (pH 1.6) mg/100 ml solution
same,solubility thermodynamic,"[3]; pH 2, aqueous buffer, 0.01N HCl (pH 2.0), at least 48 hours",240 µg/mL
same,solubility thermodynamic,"[3]; pH 2, aqueous buffer, Buffer pH 2 (citrate/HCl) (pH 2.0), at least 48 hours",210 µg/mL
same,solubility thermodynamic,"[3]; pH 3, aqueous buffer, Buffer pH 3 (citrate/HCl) (pH 3.0), at least 48 hours",120 µg/mL
same,solubility thermodynamic,"[3]; pH 3.3, water, Water (pH 3.3), at least 48 hours",190 µg/mL
same,solubility thermodynamic,"[3]; pH 4, aqueous buffer, Buffer pH 4 (citrate/HCl) (pH 4.0), at least 48 hours",110 µg/mL
same,hygroscopicity,[4]; 25° C.,hygroscopic
same,drying of the product during the desorption cycle,"[4]; 25° C., about 21 mg, FIG. 25",dried completely
same,weight loss at the drying step,"[4]; different study, about 18 mg of the mesylate solvate, FIG. 26",about 0.6%
same,drying of the product during the desorption cycle,[4]; [10],dried completely
same,hygroscopicity,[4]; [10],slightly hygroscopic
same,weight loss at the drying step,[4]; [9],0.3%
